# Laboratory results reported in patent US5032573A, “Homologs of aprotinin produced from a recombinant host, process, expression vector and recombinant host therefor and pharmaceutical use thereof” (Bayer Aktiengesellschaft, priority 1989, dated 1991).
# How the values were obtained:
# Format in all cases: biochemical
# porcine trypsin [1] = molecular target: T1, porcine trypsin (Sus scrofa, UniProt P00761); test: Trypsin inhibition assay with Benzoyl-Arg-pNA as the substrate; details: for ΔE/10 minutes: control without inhibitor 0.91
# T1 construct: purchased Merck 8350
# Procedure: (§1) Glu-52-Aprotinin obtained after cleavage with BrCN was compared with authentic aprotinin for its inhibitory activity against porcine trypsin. Both substrates Pyrglu-Gly-Arg-pNA and Benzoyl-Arg-pNa were used for trypsin determination.
# (§2) The stock solution for aprotinin was 1 μg/ml, and for Glu-52-aprotinin 0.6 μg/ml. 0-100-200-300-400-500 μl of this stock solutions were used in the test with Benzol-Arg-pNA. In the test with Pyrglu-Gly-Arg-pNA,0-3-6-9-12-15 μl were used.
# (§3) Inhibition of trypsin was determined by means of either the substrate benzoyl-DL-arginine-p-nitroanilide (Merck 1670) or pyroglutamyl-glycyl-arginine-p-nitroanilide, which was synthesized from commercially available pyroglutamyl-glycine (SENN 6886) and arginine-p-nitroanilide×HBr (SENN 9123) by means of the dicyclohexyl carbodiimide condensation method. This substrate is also sold under the designation S-2444 by KABI as an urokinase substrate.
# (§4) The former has the advantage of giving a linear response to the amount of Aprotinin in the sample, but has a low sensitivity. The latter one has a high sensitivity, but due to the dissociation of the aprotinin-trypsin-complex at those low concentrations, the dose-response-curve is non linear.
# (§5) The buffer for the measurement of trypsin and trypsin inhibitors is 0.2M Tris, pH 8.0 containing 0.01M CaCl2 and 0.05% Tween 80®.
# (§6) The determinations can be performed in any spectral photometer which allows readings of optical densities (ODs) at 400 nm. For fully automated measurements, the photometers have to be equipped with a micro processor or must be interfaced with a suitable personal computer.
# (§7) Disposable 1 cm semi micro plastic cuvettes are used for all assays. ODs are read in time intervals of 1 minute over 8 cycles at ambient temperature. The average increase of OD per minute is arbitrarily taken as the activity unit.
# (§8) For inhibition assays, porcine trypsin (Merck 8350) solution (in 0.001N HCl/50% glycerol) is mixed with the inhibitor sample, adjusted to 500 μl with buffer and incubated for 10 minutes at ambient temperature. The reaction is initiated by the addition of substrate solution. Inhibitory activities are taken from a calibration curve or automatically calculated by computer programs developed especially for this purpose. […]
# porcine trypsin [2] = molecular target: T1, porcine trypsin; test: Trypsin inhibition assay with Pyr-Glu-Gly-Arg-pNA as the substrate
# Procedure: as §1, §2, §3, §4, §5, §6, §7, §8
# cationic human Trypsin = cationic human Trypsin (Homo sapiens, UniProt P07477); test: Kinetic studies, Ki by the method of Empie and Laskowski
# Procedure: (§9) The Ki values were determined by the method of M. W. Empie and M. Laskowski, Jr., Biochem. 21, 2274 (1982).
# anionic human Trypsin = anionic human Trypsin (Homo sapiens, UniProt P07478); test: as above
# Procedure: as §9
# [3] = substrate Benzoyl-Arg-pNA, amount inhibitor per assay 300 ng
# [4] = substrate Pyr-Glu-Gly-Arg-pNA, amount inhibitor per assay 9 ng, control without inhibitor 0.85 (aprotinin), 0.84 (Glu-52-aprotinin)
# T1 sequence (P00761 9-231): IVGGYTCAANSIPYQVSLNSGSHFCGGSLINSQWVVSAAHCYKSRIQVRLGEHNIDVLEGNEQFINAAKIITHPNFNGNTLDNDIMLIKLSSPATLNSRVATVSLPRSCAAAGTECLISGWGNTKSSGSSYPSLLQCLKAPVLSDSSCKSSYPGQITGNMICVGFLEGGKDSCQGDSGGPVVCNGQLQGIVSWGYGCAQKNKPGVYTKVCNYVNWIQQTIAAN
# Chain of anionic human Trypsin (P07478 24-247): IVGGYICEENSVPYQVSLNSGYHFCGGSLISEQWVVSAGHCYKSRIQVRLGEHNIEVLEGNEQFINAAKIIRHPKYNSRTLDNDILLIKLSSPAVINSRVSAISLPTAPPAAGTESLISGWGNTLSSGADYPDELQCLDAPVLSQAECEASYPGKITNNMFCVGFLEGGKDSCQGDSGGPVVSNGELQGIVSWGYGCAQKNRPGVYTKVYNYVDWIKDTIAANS
substance,measurement,setting,value
Aprotinin [reference compound],ΔE/10 minutes,"porcine trypsin [1]; substrate Benzoyl-Arg-pNA, amount inhibitor per assay 100 ng",0.76
same,ΔE/10 minutes,"porcine trypsin [1]; substrate Benzoyl-Arg-pNA, amount inhibitor per assay 200 ng",0.57
same,ΔE/10 minutes,porcine trypsin [1]; [3],0.39
same,ΔE/10 minutes,"porcine trypsin [1]; substrate Benzoyl-Arg-pNA, amount inhibitor per assay 400 ng",0.08
same,ΔE/10 minutes,"porcine trypsin [1]; substrate Benzoyl-Arg-pNA, amount inhibitor per assay 500 ng",0.00
same,ΔE/10 minutes,"porcine trypsin [2]; substrate Pyr-Glu-Gly-Arg-pNA, amount inhibitor per assay 3 ng, control without inhibitor 0.85",0.62
same,ΔE/10 minutes,"porcine trypsin [2]; substrate Pyr-Glu-Gly-Arg-pNA, amount inhibitor per assay 6 ng, control without inhibitor 0.85",0.39
same,ΔE/10 minutes,porcine trypsin [2]; [4],0.29
same,ΔE/10 minutes,"porcine trypsin [2]; substrate Pyr-Glu-Gly-Arg-pNA, amount inhibitor per assay 12 ng, control without inhibitor 0.85",0.18
same,ΔE/10 minutes,"porcine trypsin [2]; substrate Pyr-Glu-Gly-Arg-pNA, amount inhibitor per assay 15 ng, control without inhibitor 0.85",0.13
Arg-15-Glu-52-aprotinin,Ki,cationic human Trypsin,< 0.01 nM
same,Ki,anionic human Trypsin,< 0.01 nM
Glu-52-aprotinin,active molecules contained,porcine trypsin [1]; concluded from the trypsin inhibition dose-response curves against authentic aprotinin,~100%
same,"trypsin inhibitory activity, dose-response curve compared with aprotinin","porcine trypsin [1]; substrate Benzoyl-Arg-pNA, FIG. 11",identical dose-response curves
same,ΔE/10 minutes,"porcine trypsin [1]; substrate Benzoyl-Arg-pNA, amount inhibitor per assay 60 ng",0.77
same,ΔE/10 minutes,"porcine trypsin [1]; substrate Benzoyl-Arg-pNA, amount inhibitor per assay 120 ng",0.68
same,ΔE/10 minutes,"porcine trypsin [1]; substrate Benzoyl-Arg-pNA, amount inhibitor per assay 180 ng",0.58
same,ΔE/10 minutes,"porcine trypsin [1]; substrate Benzoyl-Arg-pNA, amount inhibitor per assay 240 ng",0.44
same,ΔE/10 minutes,porcine trypsin [1]; [3],0.30
same,equilibrium constants of the trypsin-inhibitor complexes compared with aprotinin,porcine trypsin [2]; concluded from the trypsin inhibition dose-response curves,in the same order of magnitude
same,"trypsin inhibitory activity, dose-response curve compared with aprotinin","porcine trypsin [2]; substrate Pyr-Glu-Gly-Arg-pNA, FIG. 11",identical dose-response curves
same,ΔE/10 minutes,"porcine trypsin [2]; substrate Pyr-Glu-Gly-Arg-pNA, amount inhibitor per assay 1.8 ng, control without inhibitor 0.84",0.67
same,ΔE/10 minutes,"porcine trypsin [2]; substrate Pyr-Glu-Gly-Arg-pNA, amount inhibitor per assay 3.6 ng, control without inhibitor 0.84",0.56
same,ΔE/10 minutes,"porcine trypsin [2]; substrate Pyr-Glu-Gly-Arg-pNA, amount inhibitor per assay 5.4 ng, control without inhibitor 0.84",0.47
same,ΔE/10 minutes,"porcine trypsin [2]; substrate Pyr-Glu-Gly-Arg-pNA, amount inhibitor per assay 7.2 ng, control without inhibitor 0.84",0.32
same,ΔE/10 minutes,porcine trypsin [2]; [4],0.28
